For 1 compound, EC50 results are on record in BindingDB's records for patent US11903936 (University of Texas, 2024).

The experiment deals with T1, Dihydroorotate dehydrogenase (quinone), mitochondrial (Plasmodium falciparum (isolate 3D7), UniProt Q08210).
T1 sequence (Q08210 whole entry): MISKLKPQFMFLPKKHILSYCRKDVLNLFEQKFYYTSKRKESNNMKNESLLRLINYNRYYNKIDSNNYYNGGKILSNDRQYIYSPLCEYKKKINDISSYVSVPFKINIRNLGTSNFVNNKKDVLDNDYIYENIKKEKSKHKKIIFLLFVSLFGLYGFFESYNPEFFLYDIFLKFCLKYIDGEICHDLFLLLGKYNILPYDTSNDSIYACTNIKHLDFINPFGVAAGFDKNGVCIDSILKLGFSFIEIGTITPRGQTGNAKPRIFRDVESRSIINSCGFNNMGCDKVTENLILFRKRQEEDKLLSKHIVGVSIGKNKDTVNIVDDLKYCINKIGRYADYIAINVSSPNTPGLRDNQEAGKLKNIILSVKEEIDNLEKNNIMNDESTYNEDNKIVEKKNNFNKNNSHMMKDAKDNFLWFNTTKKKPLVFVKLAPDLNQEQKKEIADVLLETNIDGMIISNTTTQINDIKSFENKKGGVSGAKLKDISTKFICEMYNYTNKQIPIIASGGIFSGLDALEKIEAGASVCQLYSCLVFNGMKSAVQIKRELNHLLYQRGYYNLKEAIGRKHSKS
Briefly: P. falciparum growth and inhibition assays.

Experimental: DSMO inhibitor stocks (as above) were diluted in DMSO using a 2 or 3-fold dilution series and then dispensed into media at 10× the final concentrations. A second step into media led to final inhibitor concentrations ranging from 0.001-30 μM and a final DMSO concentration of 0.2%. […] Data were collected using triplicate technical replicates and where indicated additional biological replicates were collected (the number of biological replicates is provided in parenthesis).

`Cc1c(Cc2ccc(C(F)(F)F)c(F)c2)c[nH]c1C(=O)NC(C)c1nc[nH]n1` (stereo unspecified) [US11903936, Compound 5] yielded an EC50 of 39 nM.
